Where two headings read alike, the source gives them in different places.
Experiments:
[1] = molecular target: human A1R (Homo sapiens (Human), UniProt P30542); assay: Displacement of specific [3H]-CCPA binding at human A1R expressed in CHO cells; details: for Ki: [3H]-CCPA displacement, CHO cells, means ± SE, read-out: hA1R (Ki nM)
Text: (§1) Table 1 below reports the affinity and antagonist values of compounds KNV1-KNV13. In particular, the binding affinity is expressed in Ki and the antagonistic activity in IC50.

[2] = molecular target: human A2AR (Homo sapiens (Human), UniProt P29274); assay: Displacement of specific [3H]-NECA binding at human A2AR expressed in CHO cells; details: for Ki: [3H]-NECA displacement, CHO cells, means ± SE, read-out: hA2AR (Ki nM)
Text: as §1

[3] = molecular target: hA2BR (Homo sapiens (Human), UniProt P29275); assay: Inhibition of NECA-stimulated adenylyl cyclase activity / cAMP accumulation (GloSensor cAMP assay) in CHO cells expressing hA2BR; format: cell-based; details: for IC50: inhibiting NECA-stimulated adenylyl cyclase activity, CHO cells, means ± SE
Experimental: (§2) The activity of the present compounds was evaluated using the GloSensor™ cAMP assay, which is a new non-radioactive method offering a simple approach to monitor GPCR activity through changes in the intracellular cAMP concentration. This assay uses a mutant form of Photinus pyralis luciferase into which a cAMP-binding protein moiety has been inserted. The binding with cAMP triggers a biosensor conformational change that leads to an increase of light output allowing to evaluate the activity of ligands at the receptor under study. Following pre-equilibration with a substrate, cells stably expressing both the receptor of interest and the biosensor can be used to evaluate GPCR function enabling easy kinetic measurements of cAMP accumulation or turnover in living cells.
The antagonist profile of the compounds on A2BAR was evaluated by assessing their ability to counteract the agonist NECA-induced increase of cAMP accumulation. After 2 hrs of equilibration in reaction medium cells were incubated in 384 well plate (10 min at room temperature) with 3 μl of different antagonist concentrations and then treated with 3 μl of a fixed dose of NECA. After further 10 minutes of incubation various luminescence reads were performed at different incubation times.

[4] = molecular target: human A3R (Homo sapiens (Human), UniProt P0DMS8); assay: Displacement of specific [3H]-HEMADO binding at human A3R expressed in CHO cells
Text: as §1

[5] = molecular target: hA3R (Homo sapiens (Human), UniProt P0DMS8); assay: Counteracting NECA-induced decrease of cAMP accumulation (GloSensor cAMP assay) in CHO cells expressing hA3R; format: cell-based
Experimental: as §2
The antagonist profile of the compounds on A3AR was studied by assessing their ability to counteract the NECA-induced decrease of cAMP accumulation. After 2 hrs of equilibration in reaction medium the cells were incubated in a 384 well plate (10 min at room temperature) with 3 μl of different antagonist concentrations and then treated with 3 μl of a fixed dose of agonist. 1 μl of Forskolin 500 μM, final concentration 10 μM, were added 10 minutes after agonist and various luminescence reads were performed at different incubation times.

[6] = [3H]-HEMADO displacement, CHO cells, means ± SE, read-out: hA3R (Ki nM)
[7] = counteracting NECA-induced decrease of cAMP accumulation, CHO cells expressing hA3R, means ± SE, read-out: hA2AR (IC50 nM) [footnote e: hA3R]

human A2AR, sequence (P29274 whole entry): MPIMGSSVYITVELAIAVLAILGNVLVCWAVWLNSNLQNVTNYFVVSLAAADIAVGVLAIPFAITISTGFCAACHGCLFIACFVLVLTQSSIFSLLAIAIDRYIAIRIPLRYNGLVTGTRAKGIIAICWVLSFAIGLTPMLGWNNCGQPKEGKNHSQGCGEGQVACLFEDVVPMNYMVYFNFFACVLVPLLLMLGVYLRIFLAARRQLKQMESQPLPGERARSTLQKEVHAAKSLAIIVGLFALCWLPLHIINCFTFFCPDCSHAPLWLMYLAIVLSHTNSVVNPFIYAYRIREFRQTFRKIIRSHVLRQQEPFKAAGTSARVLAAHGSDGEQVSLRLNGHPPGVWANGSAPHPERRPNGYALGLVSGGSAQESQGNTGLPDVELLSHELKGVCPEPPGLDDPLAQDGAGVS
human A3R, sequence (P0DMS8 whole entry): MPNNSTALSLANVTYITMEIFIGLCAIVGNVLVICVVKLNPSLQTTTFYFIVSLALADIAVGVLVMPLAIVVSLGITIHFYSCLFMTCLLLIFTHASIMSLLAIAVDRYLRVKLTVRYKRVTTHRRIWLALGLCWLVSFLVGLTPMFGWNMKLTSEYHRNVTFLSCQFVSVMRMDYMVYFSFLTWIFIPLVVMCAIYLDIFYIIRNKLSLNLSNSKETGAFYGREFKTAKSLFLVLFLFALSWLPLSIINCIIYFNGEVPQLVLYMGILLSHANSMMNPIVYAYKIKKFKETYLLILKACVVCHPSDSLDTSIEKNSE
hA3R, sequence (P0DMS8 whole entry): as above
hA2BR, sequence (P29275 whole entry): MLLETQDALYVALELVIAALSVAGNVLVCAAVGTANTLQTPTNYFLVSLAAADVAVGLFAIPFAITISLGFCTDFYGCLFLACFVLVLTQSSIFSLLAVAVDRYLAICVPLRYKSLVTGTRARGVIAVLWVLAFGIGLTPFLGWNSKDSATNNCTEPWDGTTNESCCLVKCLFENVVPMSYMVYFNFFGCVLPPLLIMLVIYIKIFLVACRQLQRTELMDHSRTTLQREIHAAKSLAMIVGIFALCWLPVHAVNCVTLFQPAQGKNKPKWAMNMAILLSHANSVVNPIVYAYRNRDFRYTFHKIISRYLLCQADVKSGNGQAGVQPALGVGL
human A1R, sequence (P30542 whole entry): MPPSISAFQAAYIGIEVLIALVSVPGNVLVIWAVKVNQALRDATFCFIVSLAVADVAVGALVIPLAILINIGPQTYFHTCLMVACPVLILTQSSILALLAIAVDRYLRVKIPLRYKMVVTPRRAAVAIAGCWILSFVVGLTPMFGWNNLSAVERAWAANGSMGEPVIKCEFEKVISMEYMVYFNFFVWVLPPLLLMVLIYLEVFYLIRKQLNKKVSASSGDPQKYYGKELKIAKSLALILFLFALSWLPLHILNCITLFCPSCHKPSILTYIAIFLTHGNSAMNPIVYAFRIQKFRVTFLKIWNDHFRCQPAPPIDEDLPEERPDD

Ki [1]	Ki [2]	IC50 [3]	Ki [4, 6]	IC50 [5, 7]	activity in the other subtypes (A1) [1]	activity in the other subtypes (A2A) [2]	activity in the other subtypes (A2B) [3]	Ki ([4]; unit inferred, read-out: Ki towards A3AR)	IC50 ([5]; unit inferred, read-out: IC50, antagonistic activity on A3AR)	Molecule
> 30000 nM	> 30000 nM	> 30000 nM	7140 ± 130 nM	28000 ± 5220 nM	–	–	–	–	–	CCOC(=O)c1cc(C(=O)c2cc(C(F)(F)F)cc(C(F)(F)F)c2)n2cc(C)cc(C)c12 [KNV13, Ethyl 3-(3,5-bis(trifluoromethyl)benzoyl)-6,8-dimethylindolizine-1-carboxylate]
> 30000 nM	7970 ± 1660 nM	> 30000 nM	930 ± 159 nM	3420 ± 879 nM	–	–	–	–	–	CCOC(=O)c1cc(C(=O)c2ccccc2[N+](=O)[O-])n2cc(C)cc(C)c12 [KNV6, Ethyl 6,8-dimethyl-3-(2-nitrobenzoyl)indolizine-1-carboxylate]
> 30000 nM	> 30000 nM	> 30000 nM	8540 ± 1500 nM	25900 ± 4200 nM	–	–	–	–	–	CCOC(=O)c1cc(C(=O)c2ccc(C#N)cc2)n2cc(C)cc(C)c12 [KNV11, Ethyl 3-(4-cyanobenzoyl)-6,8-dimethylindolizine-1-carboxylate]
6980 ± 330 nM	5540 ± 998 nM	> 30000 nM	2160 ± 468 nM	9580 ± 1080 nM	–	–	–	–	–	COC(=O)c1c(C(=O)OC)c2c(C)cc(C)cn2c1C(=O)c1ccc(Br)cc1 [KNV4, Dimethyl 3-(4-bromobenzoyl)-6,8-dimethylindolizine-1,2-dicarboxylate]
> 30000 nM	4970 ± 508 nM	> 30000 nM	1070 ± 157 nM	4210 ± 1150 nM	–	–	–	–	–	CCOC(=O)c1cc(C(=O)c2ccc(C)cc2)n2cc(C)cc(C)c12 [KNV7, Ethyl 6,8-dimethyl-3-(4-methylbenzoyl)indolizine-1-carboxylate]
> 30000 nM	> 30000 nM	> 30000 nM	591 ± 112 nM	1510 ± 351 nM	–	–	–	–	–	CCOC(=O)c1cc(C(=O)c2ccc(Cl)cc2)n2cc(C)cc(C)c12 [KNV1, Ethyl 3-(4-chlorobenzoyl)-6,8-dimethylindolizine-1-carboxylate]
1330 ± 217 nM	4820 ± 243 nM	> 30000 nM	1910 ± 45 nM	7900 ± 1080 nM	–	–	–	–	–	COC(=O)c1c(C(=O)OC)c2c(C)cc(C)cn2c1C(=O)c1ccc(OC)cc1 [KNV2, Dimethyl 3-(4-methoxybenzoyl)-6,8-dimethylindolizine-1,2-dicarboxylate]
> 30000 nM	> 30000 nM	> 30000 nM	> 30000 nM	> 30000 nM	–	–	–	–	–	Ethyl 3-(4-bromobenzoyl)-6,8-dimethylindolizine-1-carboxylate [KNV3]
> 30000 nM	> 30000 nM	> 30000 nM	213 ± 16 nM	196 ± 55 nM	not active	not active	not active	213 nM	196 nM	Ethyl 3-(4-fluorobenzoyl)-6,8-dimethylindolizine-1-carboxylate [KNV5]
5610 ± 1080 nM	6880 ± 705 nM	> 30000 nM	924 ± 127 nM	4210 ± 521 nM	–	–	–	–	–	COC(=O)c1c(C(=O)OC)c2c(C)cc(C)cn2c1C(=O)c1ccc(Cl)cc1 [KNV10, Dimethyl 3-(4-chlorobenzoyl)-6,8-dimethylindolizine-1,2-dicarboxylate]
> 30000 nM	> 30000 nM	> 30000 nM	305 ± 57 nM	865 ± 105 nM	–	–	–	–	–	CCOC(=O)c1cc(C(=O)c2ccc(OC)cc2)n2cc(C)cc(C)c12 [KNV9, Ethyl 3-(4-methoxybenzoyl)-6,8-dimethylindolizine-1-carboxylate]
> 30000 nM	> 30000 nM	> 30000 nM	12100 ± 1700 nM	41100 ± 9220 nM	–	–	–	–	–	COC(=O)c1c(C(=O)OC)c2c(C)cc(C)cn2c1C(=O)c1ccc(C#N)cc1 [KNV12, Dimethyl 3-(4-cyanobenzoyl)-6,8-dimethylindolizine-1,2-dicarboxylate]
2390 ± 171 nM	1609 ± 13 nM	> 30000 nM	3090 ± 6 nM	11000 ± 2050 nM	–	–	–	–	–	COC(=O)c1c(C(=O)OC)c2c(C)cc(C)cn2c1C(=O)c1ccc(C)cc1 [KNV8, Dimethyl 6,8-dimethyl-3-(4-methylbenzoyl)indolizine-1,2-dicarboxylate]
